According to paper PMC4690121, “Interaction of Citrinin with Human Serum Albumin” (Toxins, 2015):
Where two headings read alike, the source gives them in different places.

Assays:
[1] = target: T1, bovine serum albumin (BSA) (Bos taurus, UniProt P02769); assay: Fluorescence quenching of albumin by CIT, binding constant; details: PBS pH 7.4, 25 °C; read-out: logK (±SD) of CIT-BSA complex (converted)
T1 construct: purchased Sigma-Aldrich
Procedure: (§1) A Fluorolog τ3 spectrofluorometric system (Jobin-Yvon/SPEX) and Hitachi F-4500 fluorescence spectrophotometer were used for steady-state fluorescence and fluorescence polarization measurements. All analyses were performed at +25 °C except thermodynamic studies.
(§2) Binding constants (K) were determined using fluorescence quenching method, where increasing CIT concentrations (0–5 μM) were added to standard amount of albumin (2 μM). Fluorescence emission spectra were recorded in PBS buffer (pH 7.4; λexc = 280 nm). Similarly to our previous studies, K values of CIT-albumin complexes were quantified by non-linear fitting with Hyperquad2006 program package (Protonic Software) assuming 1:1 stoichiometry: (1) I=I0+IAC−I0/2[A]0([A]0+[C]0+1/K−([A]0+[C]0+1/K)^2−4[A]0[C]0) where I denotes the fluorescence emission intensity of albumin in presence of CIT; I0 denotes the fluorescence emission intensity of albumin in absence of CIT; IAC denotes the fluorescence emission intensity of pure albumin-CIT complex (which is calculated by the Hyperquad2006 software); K denotes the binding constant; while [A]0 and [C]0 denote the total concentrations of albumin and CIT, respectively.

[2] = target: T2, porcine serum albumin (PSA) (Sus scrofa, UniProt P08835); assay: as above; details: PBS pH 7.4, 25 °C; read-out: logK (±SD) of CIT-PSA complex (converted)
T2 construct: purchased Sigma-Aldrich
T2 sequence (P08835 25-607): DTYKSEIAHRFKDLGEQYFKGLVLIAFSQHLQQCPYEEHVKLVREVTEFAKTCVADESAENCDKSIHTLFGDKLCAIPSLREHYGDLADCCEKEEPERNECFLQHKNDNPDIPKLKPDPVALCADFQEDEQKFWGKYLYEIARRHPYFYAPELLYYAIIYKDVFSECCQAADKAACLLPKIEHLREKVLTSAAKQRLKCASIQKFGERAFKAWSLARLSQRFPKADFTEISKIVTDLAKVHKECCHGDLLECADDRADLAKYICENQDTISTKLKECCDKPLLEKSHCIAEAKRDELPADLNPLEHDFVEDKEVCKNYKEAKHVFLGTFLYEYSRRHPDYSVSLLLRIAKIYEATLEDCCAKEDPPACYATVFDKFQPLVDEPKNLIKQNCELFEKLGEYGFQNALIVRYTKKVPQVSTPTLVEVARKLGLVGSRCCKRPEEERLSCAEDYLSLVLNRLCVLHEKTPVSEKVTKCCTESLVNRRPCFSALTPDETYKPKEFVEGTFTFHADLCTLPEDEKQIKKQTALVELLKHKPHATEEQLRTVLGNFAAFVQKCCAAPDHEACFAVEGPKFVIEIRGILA
Procedure: as §1, §2

rat serum albumin (RSA) = target: T3, rat serum albumin (RSA) (Rattus norvegicus, UniProt P02770); assay: as above; details: PBS pH 7.4, 25 °C; read-out: logK (±SD) of CIT-RSA complex (converted)
T3 construct: purchased Sigma-Aldrich
T3 sequence (P02770 25-608): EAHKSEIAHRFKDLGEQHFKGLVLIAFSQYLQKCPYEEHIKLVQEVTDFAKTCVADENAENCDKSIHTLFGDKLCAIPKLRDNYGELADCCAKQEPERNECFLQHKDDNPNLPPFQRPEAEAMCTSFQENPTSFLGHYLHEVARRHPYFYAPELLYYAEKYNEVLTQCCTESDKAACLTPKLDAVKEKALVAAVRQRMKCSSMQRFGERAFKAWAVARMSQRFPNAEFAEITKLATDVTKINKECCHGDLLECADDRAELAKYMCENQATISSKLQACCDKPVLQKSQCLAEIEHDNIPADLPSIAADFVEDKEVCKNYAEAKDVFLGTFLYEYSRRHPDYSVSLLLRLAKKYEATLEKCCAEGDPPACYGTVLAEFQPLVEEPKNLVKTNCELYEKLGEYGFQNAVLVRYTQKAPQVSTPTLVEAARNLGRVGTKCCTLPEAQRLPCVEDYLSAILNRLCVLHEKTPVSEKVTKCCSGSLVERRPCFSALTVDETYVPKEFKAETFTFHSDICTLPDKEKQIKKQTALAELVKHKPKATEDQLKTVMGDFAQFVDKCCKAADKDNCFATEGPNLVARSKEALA
Procedure: as §1, §2

[3] = target: T4, human serum albumin (HSA) (Homo sapiens, UniProt P02768)
T4 sequence (P02768 25-609): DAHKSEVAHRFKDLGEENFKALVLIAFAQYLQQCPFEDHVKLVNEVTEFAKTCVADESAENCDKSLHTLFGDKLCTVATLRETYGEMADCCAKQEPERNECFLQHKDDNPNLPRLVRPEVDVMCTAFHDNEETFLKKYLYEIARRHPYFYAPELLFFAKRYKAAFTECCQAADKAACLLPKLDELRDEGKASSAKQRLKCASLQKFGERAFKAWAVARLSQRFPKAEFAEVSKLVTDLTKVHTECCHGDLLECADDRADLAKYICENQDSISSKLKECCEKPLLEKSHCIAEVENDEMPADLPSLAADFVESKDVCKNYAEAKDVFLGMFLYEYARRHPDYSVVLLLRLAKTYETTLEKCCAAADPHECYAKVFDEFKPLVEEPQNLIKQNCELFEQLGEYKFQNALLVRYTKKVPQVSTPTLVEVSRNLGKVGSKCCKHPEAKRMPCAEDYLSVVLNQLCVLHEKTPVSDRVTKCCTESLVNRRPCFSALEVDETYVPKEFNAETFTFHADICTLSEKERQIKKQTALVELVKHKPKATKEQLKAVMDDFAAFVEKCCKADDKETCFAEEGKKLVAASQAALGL
Procedure: Before ultrafiltration samples contained 1 μM CIT with or without HSA (1, 2.5 or 5 μM), while displacement of CIT by WAR (5 and 10 μM) or OTA (2.5 and 5 μM) was investigated in the presence of 1 μM CIT and 5 μM HSA. During ultrafiltration experiments Amicon Ultra-4 centrifugal filter units (with 10 kDa molecular weight cut-off value; from Merck Millipore, Darmstadt, Germany) were applied. In order to remove glycerol from the filters, filter units were washed with 3 mL water and 3 mL PBS. Thereafter, 2.5 mL of the samples were transferred into the filter and Amicon tubes were centrifuged at 7500 g for 10 min at 25 °C (in Hettich Universal 32R centrifuge with fixed-angle rotor). Then 2 mL quantity of filtrate was transferred into 5-mL Eppendorf tube, after which 10 μL 6 M HCl solution was added to the sample in order to adjust the pH (to approximately 2). […] Final CIT concentrations were determined (applying calibration curve at concentration range 0.1–2.0 μM) by Hitachi F-4500 fluorescence spectrophotometer with the measurement of the fluorescence signal of CIT itself, using 330 nm and 500 nm as excitation and emission wavelengths, respectively.

MDCK cells = assay: MDCK cell viability (calcein acetoxymethyl ester); assay type: cell-based; details: 24 h
Procedure: MDCK (immortalized, epithelial-kidney, ATCC: CCL 34) cells were cultured in DMEM containing FBS (10%), penicillin (100 U/mL) and streptomycin (100 μg/mL), in 25 cm^2 sterile plastic flasks (VWR) and in 24-well sterile plastic plates (VWR). In order to test the effect of CIT on cell viability in absence and presence of albumin, cell media with and without 10% FBS or 40 g/L HSA were also prepared. After 24-h treatment of MDCK cells (in 24-well plates) with CIT (0–100 μM) in absence and presence of FBS (10%) or HSA (40 g/L), cells were washed three times with 500 μL PBS. Then PBS was replaced with 500 µL Hanks + glucose buffer containing 1.6 µM calcein acetoxymethyl ester and cells were incubated for 40 min at 37 °C in the dark. Thereafter, wells were washed again with 500 μL ice-cold PBS and the emptied wells were filled with 500 μL of 5% perchloric acid (PCA) after which cells were incubated for 15 min at room temperature. 20 μL PCA extract was added to 180 μL of 1 M NaOH using black 96-well optical plates (VWR) for fluorescence measurement of the formed calcein (λexc = 490 nm, λem = 520 nm). Fluorescence intensities were measured with a microplate reader (Perkin Elmer EnSpire Multimode reader).

[4] = target: T4, human serum albumin (HSA); assay: Fluorescence quenching of albumin by CIT, binding constant and van't Hoff thermodynamics; set-up: purchased Sigma-Aldrich
Procedure: as §1
as §2, with “Fluorescence emission spectra were recorded in PBS buffer (pH 7.4; λexc = 280 nm).” left out
To get deeper insight into the formation of CIT-HSA complex, quenching experiments were also performed at different temperatures (25, 30, 35, and 40 °C). Thermodynamic parameters were quantified applying the van’t Hoff equation: (2) lnK=−ΔG/RT=−ΔH/RT+ΔS/R where ΔG is the Gibbs free energy change, ΔS is the entropy change, while ΔH is the enthalpy change associated with the complex formation.

[5] = target: T4, human serum albumin (HSA); assay: Steady-state fluorescence displacement of warfarin from HSA by CIT; assay type: binding; set-up: purchased Sigma-Aldrich; details: warfarin 1 μM, HSA 3.5 μM, CIT 0.25–5.0 μM
[6] = target: T4, human serum albumin (HSA); assay: Fluorescence polarization displacement of OTA from HSA; assay type: binding; set-up: purchased Sigma-Aldrich; details: OTA 1 μM, HSA 1.4 μM, competitor 1–30 μM
[7] = target: T4, human serum albumin (HSA); details: cited from earlier work
[8] = van't Hoff, 25-40 °C quenching data

T1 sequence (P02769 25-607): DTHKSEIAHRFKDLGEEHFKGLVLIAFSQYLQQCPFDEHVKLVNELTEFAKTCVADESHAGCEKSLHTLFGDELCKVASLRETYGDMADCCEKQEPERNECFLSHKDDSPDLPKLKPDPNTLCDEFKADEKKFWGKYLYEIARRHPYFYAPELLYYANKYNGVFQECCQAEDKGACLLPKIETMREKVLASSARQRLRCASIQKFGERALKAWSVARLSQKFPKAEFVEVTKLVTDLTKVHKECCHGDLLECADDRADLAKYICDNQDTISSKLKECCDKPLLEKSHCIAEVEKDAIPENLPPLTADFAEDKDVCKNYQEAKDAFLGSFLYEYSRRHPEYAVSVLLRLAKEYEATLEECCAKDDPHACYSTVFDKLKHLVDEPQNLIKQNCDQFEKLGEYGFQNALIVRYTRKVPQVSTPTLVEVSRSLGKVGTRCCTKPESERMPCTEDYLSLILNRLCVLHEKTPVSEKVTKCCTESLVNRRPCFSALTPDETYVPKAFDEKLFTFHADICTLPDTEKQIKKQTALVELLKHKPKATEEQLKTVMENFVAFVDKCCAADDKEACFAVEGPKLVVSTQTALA

CC1=C2C(=CO[C@H](C)[C@H]2C)C(O)=C(C(=O)O)C1=O [CIT, Citrinin]
Kd [1]: 8.91 µM | Kd [2]: 11 µM | Kd (rat serum albumin (RSA)): 3.16 µM | CIT in the filtrate in presence of HSA ([3]; 1 μM CIT, HSA 1, 2.5 and 5 μM, 10 kDa cut-off): significant decrease | CIT-induced viability loss in presence of FBS (MDCK cells; 100 μM CIT + 10% FBS): considerably alleviated | CIT-induced viability loss in presence of HSA (MDCK cells; 100 μM CIT + 40 g/L HSA): considerably alleviated | decrease of cell viability (MDCK cells; 100 μM CIT, absence of FBS): approximately 50% | Kd ([4]; PBS pH 6.0, 25 °C, read-out: logK of CIT-HSA complex (converted)): 5.62 µM | Kd ([4]; PBS pH 7.0, 25 °C, read-out: logK of CIT-HSA complex (converted)): 5.25 µM | Kd ([4]; PBS pH 7.4, 25 °C, read-out: logK (±SD) of CIT-HSA complex (converted)): 4.79 µM | Kd ([4]; PBS pH 7.4, 30 °C, read-out: logK (±SD) of CIT-HSA complex (converted)): 5.5 µM | Kd ([4]; PBS pH 7.4, 35 °C, read-out: logK (±SD) of CIT-HSA complex (converted)): 6.46 µM | Kd ([4]; PBS pH 7.4, 40 °C, read-out: logK (±SD) of CIT-HSA complex (converted)): 7.76 µM | Kd ([4]; PBS pH 7.8, 25 °C, read-out: logK of CIT-HSA complex (converted)): 7.59 µM | ∆H of CIT-HSA complex formation [4, 8]: -5.772 kcal/mol | ∆S of CIT-HSA complex formation [4, 8]: +20.90 J·mol^−1·K^−1 | fluorescence intensity of HSA-bound warfarin (displacement of warfarin) [5]: significant decrease | fluorescence polarization of OTA (displacement of OTA) [6]: decrease of fluorescence polarization of OTA in a concentration dependent fashion

C[C@@H]1Cc2c(Cl)cc(C(=O)N[C@@H](Cc3ccccc3)C(=O)O)c(O)c2C(=O)O1 [OTA, ochratoxin A]
displacement of CIT from HSA ([3]; 1 μM CIT + 5 μM HSA, 5 μM OTA): almost complete displacement | change of CIT concentration in the filtrate caused by the competitor ([3]; 1 μM CIT + 5 μM HSA, warfarin or ibuprofen 5 or 10 μM, OTA 2.5 and 5 μM): significant elevation | logK of OTA-HSA complex ([7]; 25 °C): 7.4–7.6 | complex stability with HSA compared to BSA ([7]; HSA vs BSA): 15 fold | complex stability with HSA compared to RSA ([7]; HSA vs RSA): 30 fold
